Measured values from patent US11807634B2, “Cyclopropyl dihydroquinoline sulfonamide compounds” (AMGEN INC., priority 2020, dated 2023).

system: CYP3A4; test: Human CYP 3A4 induction assay (mRNA, cryopreserved human hepatocytes); type: in vitro ADME; details: human hepatocytes, 10 uM test compound, 72 hours, mRNA, percent of control (rifampin positive control)
Method: Human CYP 3A4 Induction Assay
Cryopreserved human hepatocytes were seeded in 96-well collagen coated plates at 70,000 cells per well in hepatocyte plating media (HPM, final concentrations: 1× Dulbecco's Modified Eagle's Medium, 0.1 μM dexamethasone, 10% fetal bovine serum, 1× ITS, 1×PSG) followed by incubation at 37° C. under 5% CO2 and 90% relative humidity for 2 days to allow hepatocytes to form a confluent layer. On Day 3, hepatocytes were treated with either test compound or rifampin (20 μM, positive control for CYP3A induction) prepared in hepatocyte incubation media ((HIM, final concentrations: 1× William's Medium E, 0.1 μM dexamethasone, 1×ITS, 1×PSG). Treatment was performed for 72 hours with either 2 concentrations (2 μM or 10 μM) or a range of concentrations (0.001 μM to 100 μM) of the test compound to obtain full dose-response curve. Fresh media containing the relevant concentrations of the test compound was replaced every day until the samples were processed. After 72 hours of incubation, samples were processed for mRNA analysis using bDNA technology using manufacturer's instructions (Affymetrix, Fremont, Calif.). Cell viability was tested at the end of the experiment using MTT assay kit (Roche Diagnostics, Basel, Switzerland). Data was analyzed and presented as percent of control (POC) and Emax and EC50 obtained when appropriate according to guidance from Center for Drug Evaluation and Research (CDER), 2006, Guidance for Industry, Drug Interaction Studies—Study Design, Data Analysis, and Implications for Dosing and Labeling.
Cryopreserved human hepatocytes were seeded in 96-well collagen coated plates at 70,000 cells per well in hepatocyte plating media (HPM, final concentrations: 1× Dulbecco's Modified Eagle's Medium, 0.1 μM dexamethasone, 10% fetal bovine serum, 1×ITS, 1×PSG) followed by incubation at 37° C. under 5% CO2 and 90% relative humidity for 2 days to allow hepatocytes to form a confluent layer. On Day 3, hepatocytes were treated with either test compound or rifampin (20 μM, positive control for CYP3A induction) prepared in hepatocyte incubation media ((HIM, final concentrations: 1× William's Medium E, 0.1 μM dexamethasone, 1×ITS, 1×PSG). Treatment was performed for 72 hours with either 2 concentrations (2 μM or 10 μM) or a range of concentrations (0.001 μM to 100 μM) of the test compound to obtain full dose-response curve. Fresh media containing the relevant concentrations of the test compound was replaced every day until the samples were processed. After 72 hours of incubation, samples were processed for mRNA analysis using bDNA technology using manufacturer's instructions (Affymetrix, Fremont, Calif.). Cell viability was tested at the end of the experiment using MTT assay kit (Roche Diagnostics, Basel, Switzerland). Data was analyzed and presented as percent of control (POC) and Emax and EC50 obtained when appropriate, as described in Halladay, J. et al, 2012, An “all-inclusive” 96-well cytochrome P450 induction method: Measuring enzyme activity, mRNA levels, protein levels, and cytotoxicity from one well using cryopreserved human hepatocytes, Pharmacological and Toxicological Methods, 66:270-275.
The cytochrome P450 (CYP) is a well-known superfamily of enzymes that are responsible for the oxidative and reductive metabolic transformation of medications used in clinical practice. In addition, the CYP enzymes are commonly associated with causing many clinically relevant drug-drug interactions. Of the CYP enzymes, CYP3A4 is not only the most prevalent CYP enzyme in the liver and intestine, but is responsible for metabolism and elimination of approximately 50% of marketed drugs. In addition, CYP3A4 activity can be induced (or increased) or inhibited (decreased) in response to administration of certain drugs, thereby affecting concentrations of their own or certain concomitant drugs present in the body. […]

Compared with `COc1cc([C@H]2C[C@@H]2C(F)(F)F)c(C)cc1-n1c(=O)ccc2cc(S(=O)(=O)Nc3ncccn3)ccc21` (atropisomer, axis not shown; (P)) [Example 29, (P)-1-(2-methoxy-5-methyl-4-((1S,2S)-2-(trifluoromethyl)cyclopropyl)phenyl)-2-oxo-N-(pyrimidin-2-yl)-1,2-dihydroquinoline-6-sulfonamide], `COc1cc([C@H]2C[C@@H]2C(F)(F)F)c(C)cc1-n1c(=O)ccc2cc(S(=O)(=O)Nc3ccon3)ccc21` (single isomer, unassigned) [Example 27] is lower in “CYP3A4 mRNA Induct Hu 10 uM POC” value: 74.53% for the first, 64.14% for the second.

Going from `COc1cc([C@H]2C[C@@H]2C2CC2)c(F)cc1-n1c(=O)ccc2cc(S(=O)(=O)Nc3ccon3)ccc21` (atropisomer, axis not shown; (P)) [Example 31, (P)-1-(4-((1R,2S)-[1,1′-bi(cyclopropan)]-2-yl)-5-fluoro-2-methoxyphenyl)-N-(isoxazol-3-yl)-2-oxo-1,2-dihydroquinoline-6-sulfonamide] to `COc1cc(C2CC2)c(F)cc1-n1c(=O)ccc2cc(S(=O)(=O)Nc3ccon3)ccc21` [A, 1-(4-cyclopropyl-5-fluoro-2-methoxyphenyl)-N-(isoxazol-3-yl)-2-oxo-1,2-dihydroquinoline-6-sulfonamide, reference compound], the “CYP3A4 mRNA Induct Hu 10 uM POC” value falls from 100.7% to 84.31%.

Going from `COc1cc([C@@H]2C[C@H]2C(F)(F)F)c(F)cc1-n1c(=O)ccc2cc(S(=O)(=O)Nc3ncns3)ccc21` (atropisomer, axis not shown; (P)) [Example 34, (P)-1-(5-fluoro-2-methoxy-4-((1R,2R)-2-(trifluoromethyl)cyclopropyl)phenyl)-2-oxo-N-(1,2,4-thiadiazol-5-yl)-1,2-dihydroquinoline-6-sulfonamide] to `COc1cc([C@@H]2C[C@H]2C(F)(F)F)c(F)cc1-n1c(=O)ccc2cc(S(=O)(=O)Nc3ncco3)ccc21` (atropisomer, axis not shown; (P)) [Example 35, (P)-1-(5-fluoro-2-methoxy-4-((1R,2R)-2-(trifluoromethyl)cyclopropyl)phenyl)-N-(oxazol-2-yl)-2-oxo-1,2-dihydroquinoline-6-sulfonamide], the “CYP3A4 mRNA Induct Hu 10 uM POC” value rises from 12.69% to 53.28%.

First: COc1cc([C@H]2C[C@@H]2C(F)(F)F)c(F)cc1-n1c(=O)ccc2cc(S(=O)(=O)Nc3ncco3)ccc21 (atropisomer, axis not shown; (P)) [Example 36, (P)-1-(5-fluoro-2-methoxy-4-((1S,2S)-2-(trifluoromethyl)cyclopropyl)phenyl)-N-(oxazol-2-yl)-2-oxo-1,2-dihydroquinoline-6-sulfonamide]
Second: COc1cc([C@H]2C[C@@H]2C(F)(F)F)c(C#N)cc1-n1c(=O)ccc2cc(S(=O)(=O)Nc3ccon3)ccc21 (atropisomer, axis not shown; (P)) [Example 37, (P)-1-(5-cyano-2-methoxy-4-((1S,2S)-2-(trifluoromethyl)cyclopropyl)phenyl)-N-(isoxazol-3-yl)-2-oxo-1,2-dihydroquinoline-6-sulfonamide]
The “CYP3A4 mRNA Induct Hu 10 uM POC” value of the first is higher: 102.8% for the first, 16.39% for the second.

Compared with `COc1cc([C@@H]2C[C@H]2C(F)(F)F)ccc1-n1c(=O)ccc2cc(S(=O)(=O)Nc3ccon3)ccc21` (atropisomer, axis not shown; (P)) [Example 38, (P)-N-(isoxazol-3-yl)-1-(2-methoxy-4-((1R,2R)-2-(trifluoromethyl)cyclopropyl)phenyl)-2-oxo-1,2-dihydroquinoline-6-sulfonamide], `COc1cc([C@H]2C[C@@H]2C(F)(F)F)ccc1-n1c(=O)ccc2cc(S(=O)(=O)Nc3ccon3)ccc21` (atropisomer, axis not shown; (P)) [Example 39, (P)-N-(isoxazol-3-yl)-1-(2-methoxy-4-((1S,2S)-2-(trifluoromethyl)cyclopropyl)phenyl)-2-oxo-1,2-dihydroquinoline-6-sulfonamide] is higher in “CYP3A4 mRNA Induct Hu 10 uM POC” value: 29.06% for the first, 38.35% for the second.

First: COc1cc([C@@H]2C[C@H]2C(F)(F)F)c(F)cc1-n1c(=O)cc(F)c2cc(S(=O)(=O)Nc3ccon3)ccc21 (atropisomer, axis not shown; (P)) [Example 44, (P)-4-fluoro-1-(5-fluoro-2-methoxy-4-((1R,2R)-2-(trifluoromethyl)cyclopropyl)phenyl)-N-(isoxazol-3-yl)-2-oxo-1,2-dihydroquinoline-6-sulfonamide]
Second: COc1cc([C@H]2C[C@@H]2C(F)(F)F)c(F)cc1-n1c(=O)ccc2cc(S(=O)(=O)Nc3ccon3)c(F)cc21 (single isomer, unassigned) [Example 46]
The “CYP3A4 mRNA Induct Hu 10 uM POC” value of the first is lower: 26.89% for the first, 53.03% for the second.

First: COc1cc([C@@H]2C[C@H]2C(F)(F)F)ccc1-n1c(=O)ccc2cc(S(=O)(=O)Nc3ccon3)c(F)cc21 (atropisomer, axis not shown; (P)) [Example 47, (P)-7-fluoro-N-(isoxazol-3-yl)-1-(2-methoxy-4-((1R,2R)-2-(trifluoromethyl)cyclopropyl)phenyl)-2-oxo-1,2-dihydroquinoline-6-sulfonamide]
Second: COc1cc([C@H]2C[C@@H]2C(F)(F)F)ccc1-n1c(=O)ccc2cc(S(=O)(=O)Nc3ccon3)c(F)cc21 (atropisomer, axis not shown; (P)) [Example 48, (P)-7-fluoro-N-(isoxazol-3-yl)-1-(2-methoxy-4-((1S,2S)-2-(trifluoromethyl)cyclopropyl)phenyl)-2-oxo-1,2-dihydroquinoline-6-sulfonamide]
The “CYP3A4 mRNA Induct Hu 10 uM POC” value of the first is lower: 14.245% for the first, 54.02% for the second.

Compared with `COc1cc([C@H]2C[C@@H]2C(F)(F)F)c(Cl)cc1-n1c(=O)ccc2cc(S(=O)(=O)Nc3cccnn3)ccc21` (single isomer, unassigned) [Example 15], `O=c1ccc2cc(S(=O)(=O)Nc3ccon3)ccc2n1-c1cc(F)c([C@H]2C[C@@H]2C(F)(F)F)cc1OC1CC1` (single isomer, unassigned) [Example 41] is lower in “CYP3A4 mRNA Induct Hu 10 uM POC” value: 69.11% for the first, 13.21% for the second.
